Test results reported in patent publication US8178579B2, “Dioxanes and uses thereof” (President and Fellows of Harvard College, priority 2001, dated 2012).
“Also recorded” adds a separate entry of the source. Non-standard residues stand in square brackets, D forms with d. Residues, ends and D or L forms follow the SMILES beside them. Aoe = N[C@@H](CCCCCC(=O)[C@@H]1CO1)C(=O)O

Key:
A549 cells = experiment: mitotic abnormalities by immunofluorescence; assay type: cell-based, human; conditions: 18 h or 24 h treatment, TSA 10 μM in FIG. 42C
Experimental: Detection of acetylated α-tubulin and acetylated histones by immunofluorescence was performed as described in Example 6 above. For determining microtubule stability, A549 cells were treated as indicated, fixed in glutaraldehyde, and stained for acetylated α-tubulin and total α-tubulin in antibody dilution buffer (ADB, Tris-buffered saline (TBS), 0.15 M NaCl, 0.02 M Tris-Cl, pH 7.4, with 2% bovine serum albumin and 0.1% Triton-X 100). For cold-depolymerization, cells were incubated at 4° C. or 37° C. for an additional 90 minutes before fixation. For calcium depolymerization, cells were incubated at 37° C. for 10 minutes in a microtubule-stabilizing buffer (0.2% NP-40, 5 mM MgCl2, 2 mM EGTA, 2 M glycerol, 100 mM PIPES, pH 6.8) with and without the addition of CaCl2 (2 mM) before glutaraldehyde fixation. For co-localization experiments, biotubacin (50 μM) treated A549 cells were fixed in 3.7% formaldehyde in TBS and processed as for detecting acetylated α-tubulin (See Example 6 above) with biotubacin detected using streptavidin-TR (1:500). HDAC6 was detected using a rabbit polyclonal antibody (1:250-1:750; C.M.G., unpublished data) under the conditions used to detect acetylated α-tubulin (See Example 6 above). Filamentous actin in HT-1080 cells was detected using TR-conjugated phalloidin (1 μg/mL), and depolymerized actin using FITC-conjugated deoxyribonuclease (10 μg/mL), following fixation in 3.7% formaldehyde in TBS. p58 (1:100) in NIH-3T3 cells was detected after fixation in 3.7% formaldehyde in TBS. Images for these experiments were collected on a Zeiss LSM510 confocal scanning laser microscope at the appropriate wavelengths using the accompanying software and processed with Adobe Photoshop. Deconvoluted serial images of TSA and DMSO treated A549 cells were obtained by taking sections (8μ) on a Zeiss Axioskop 2 microscope using an AxioCam camera and the accompanying software. Rat hippocampal neuronal cultures were fixed at room temperature for 15 min in phosphate-buffered saline (PBS) containing 4% paraformaldehyde. […]

α-tubulin deacetylation = experiment: acetylated α-tubulin in cells (AcTubulin cytoblot, immunofluorescence, Western blot); assay type: cell-based, human; conditions: for effect on tubulin deacetylation / α-tubulin acetylation in cells: A549 (also BS-C-1) cells, tubacin/JCWII114, niltubacin/JCWII153 2 μM, TSA 100 nM-4 μM, library ~2-5 μM, 18 h
Experimental: (§1) A549 cells were seeded at a density of 4,000 cells/50 μl in DMEM+ in white tissue culture-treated 384-well plates (Nalge Nunc) using a Multidrop 384 liquid dispenser (Labsystems). Library small molecules were pinned twice (100-150 nl/pin) from ˜1 mM stock solutions (DMSO) and incubated for 18 hours. For the ITSA1+AcTubulin assay, ITSA1 (50 μM) was added four hours after pin-transfer of library molecules. Media was aspirated with a 16-channel wand. For the acetylated α-tubulin cytoblot (AcTubulin), 40 μl/well of fixation solution (3.7% formaldehyde (1:10 from 37% stock) in Tris-buffered saline (TBS, 0.15 M NaCl, 0.02 M Tris-Cl, pH 7.4) was added and plates incubated for twenty minutes at room temperature. After aspiration, 30 μl 100% methanol (−20° C.) was added and incubated for five minutes at room temperature. After aspirating and washing three times with 90 μl of antibody dilution buffer (ADB, TBS/2% bovine serum albumin, 0.1% TritonX-100) the wells were blocked for twenty minutes in ADB. After aspirating, 20 μl/well of ADB containing anti-acetylated α-tubulin antibody (mouse; 1:1000) and anti-mouse IgG horseradish peroxidase (HRP)-conjugated antibody (1:750) was added and incubated overnight (4° C.). For the anti-acetyl lysine cytoblot (AcLysine), 40 μl/well of fixation solution (95% ethanol/5% acetic acid, −20° C.) was added and plates incubated for five minutes at room temperature. Wells were aspirated, washed, and blocked in ADB as for the AcTubulin protocol. After aspirating, 20 μl/well of ADB containing anti-acetylated lysine (rabbit; 1:375) and anti-rabbit IgG-HRP conjugated antibody (1:750) was added and incubated overnight (4° C.). For the anti-acetylated histone H3 (AcHistH3) and anti-acetylated histone H4 (AcHistH4) cytoblots, cells were fixed, washed, and blocked in ADB as for the AcLysine cytoblot. After aspirating, 20 μl/well of ADB containing anti-acetylated histone H3 antibody (rabbit, 1:500) or anti-acetylated histone H4 antibody (rabbit, 1:500) was added and incubated for two hours at room temperature. Wells were aspirated and washed twice with 80 μl of ADB. After aspirating, 20 μl/well of ADB containing anti-rabbit IgG-HRP conjugated antibody (1:1000) was added and incubated for two hours (room temperature). For the AcTubulin and AcLysine assays, plates were washed three times with TBS before adding 20 μl/well of enhanced chemiluminescent (ECL) mixture. For the AcHistH3 and AcHistH4 assays, plates were washed three times with 80 μl TBS with 1% Triton X-100 and once with 80 μl TBS before adding 20 μl/well of ECL mixture. Plates were read on an Analyst plate reader (LJL Biosystems) with an integration time of 0.1 seconds.
(§2) 1,3-dioxanes from single polystyrene macrobeads were prepared as 1-2 mM stock solutions in DMSO as described [Hubbert, C., Guardiola, A., Shao, R., Kawaguchi, Y., Ito, A., Nixon, A., Yoshida, M., Wang, X. F., and Yao, T. P. (2002). HDAC6 is a microtubule-associated deacetylase. Nature 417, 455-458]. Bead decoding and structure determination were as described [See for example, Hubbert, C., Guardiola, A., Shao, R., Kawaguchi, Y., Ito, A., Nixon, A., Yoshida, M., Wang, X. F., and Yao, T. P. (2002). HDAC6 is a microtubule-associated deacetylase. Nature 417, 455-458; and Piperno, G., LeDizet, M., and Chang, X. J. (1987). Microtubules containing acetylated alpha-tubulin in mammalian cells in culture. J. Cell Biol. 104, 289-302]. Small molecules (˜2-5 μM) of interest were retested using a sample from the plate of stock solutions by fluorescence microscopy and comparison to the effects of trichostatin (300 nM to 1 μM).
(§3) A549 cells were seeded at a density of 50,000/200 μl in DMEM+ on the surface of glass coverslips on top of Parafilm in a 10 cm dish and allowed to attach overnight. For detection of acetylated α-tubulin, cells were permeabilized and fixed with 100 mM K-PIPES, pH 6.8, 10 mM EGTA, 1 mM MgCl2, 0.2% triton X-100, 0.2% glutaraldehyde for fifteen minutes. […]

HDAC6F = target: T1, HDAC6F (Homo sapiens, UniProt Q9UBN7); experiment: in vitro tubulin deacetylase (TDAC) assay, immunoprecipitated wild-type HDAC6F, MAP-stabilized tubulin; assay type: biochemical; conditions: TSA 300 nM or 1 μM, tubacin, niltubacin, trapoxin B 1 μM
T1 construct: made in house; host or cells: TAg Jurkat cells, transient transfection, anti-FLAG M2 immunoprecipitation
T1 sequence (Q9UBN7 1-1215): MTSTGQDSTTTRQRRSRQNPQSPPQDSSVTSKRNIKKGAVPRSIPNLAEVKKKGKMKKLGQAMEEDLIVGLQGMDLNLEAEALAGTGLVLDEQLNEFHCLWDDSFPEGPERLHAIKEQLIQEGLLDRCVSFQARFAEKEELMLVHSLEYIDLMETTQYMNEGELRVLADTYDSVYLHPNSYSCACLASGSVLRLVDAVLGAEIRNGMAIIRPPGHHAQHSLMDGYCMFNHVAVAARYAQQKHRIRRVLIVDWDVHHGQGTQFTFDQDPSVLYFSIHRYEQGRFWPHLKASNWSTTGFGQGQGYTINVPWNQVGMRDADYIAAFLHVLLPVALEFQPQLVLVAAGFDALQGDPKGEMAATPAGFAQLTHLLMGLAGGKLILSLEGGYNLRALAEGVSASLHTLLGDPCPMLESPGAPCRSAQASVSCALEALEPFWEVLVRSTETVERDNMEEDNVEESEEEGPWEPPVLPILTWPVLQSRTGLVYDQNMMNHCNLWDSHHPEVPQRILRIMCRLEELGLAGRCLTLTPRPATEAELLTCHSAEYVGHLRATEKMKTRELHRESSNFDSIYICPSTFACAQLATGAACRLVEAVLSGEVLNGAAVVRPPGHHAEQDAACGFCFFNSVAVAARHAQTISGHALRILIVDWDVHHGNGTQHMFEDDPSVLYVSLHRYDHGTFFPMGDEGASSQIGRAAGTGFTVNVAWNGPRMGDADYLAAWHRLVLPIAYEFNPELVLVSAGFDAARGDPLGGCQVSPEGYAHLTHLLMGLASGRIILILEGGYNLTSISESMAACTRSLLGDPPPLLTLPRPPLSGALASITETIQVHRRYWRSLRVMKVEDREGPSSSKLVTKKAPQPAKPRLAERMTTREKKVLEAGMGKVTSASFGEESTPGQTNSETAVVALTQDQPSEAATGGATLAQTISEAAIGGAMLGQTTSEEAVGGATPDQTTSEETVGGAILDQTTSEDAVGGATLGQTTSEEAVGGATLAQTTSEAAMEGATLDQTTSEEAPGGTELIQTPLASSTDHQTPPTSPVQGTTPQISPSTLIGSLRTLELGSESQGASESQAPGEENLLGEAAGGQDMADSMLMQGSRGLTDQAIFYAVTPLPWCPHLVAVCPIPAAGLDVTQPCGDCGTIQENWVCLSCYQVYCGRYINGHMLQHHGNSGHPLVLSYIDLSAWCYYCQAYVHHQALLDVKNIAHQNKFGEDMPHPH
Text: Tubulin and MAPs were isolated from bovine brain as described [See http://mitchison.med.harvard.edu/protocols/tubprep.html]. Whole brain and fractions from phosphocellulose chromatography were blotted for HDAC6 and acetylated α-tubulin. Cultured hippocampal neurons from dissociated 1-day old rat brains were transfected with an enhanced green fluorescent protein (EGFP)-actin construct at 4-5 days using the calcium phosphate method [E. N. Star, D. J. Kwiatkowski and V. N. Murthy, Nat. Neurosci. […] K. Miranti and M. E. Greenberg, J. Neurosci. […] Transfected cultures were allowed to grow for at least 48 h before the addition of experimental compounds.
[^3H]Acetate-incorporated histones were isolated from butyrate-treated HeLa cells as described [J. Taunton, C. […] Immunoprecipitates were incubated with acetylated histones and HDAC activity determined by scintillation counting as described [J. Taunton, C. […] TDAC assays were performed with immunoprecipitates using MAP-stabilized microtubules polymerized from MAP-rich tubulin fraction as described [C. […] Reactions were incubated (2 h) at 37° C., then incubated on ice (15 min).

histone deacetylation = experiment: acetylated lysine / acetylated histone in cells (AcLysine cytoblot, immunofluorescence, Western blot); assay type: cell-based, human; conditions: A549 (also BS-C-1) cells, tubacin, niltubacin 2 μM, histacin 20 μM, library ~2-5 μM, 18 h
Experimental: as §1, §2, §3

[1] = listed as carboxylic acid analogue of JCWII114

## C[C@@H]1NC(=O)[C@H]2CCCN2C(=O)[C@H](CCCCCC(=O)[C@@H]2CO2)NC(=O)[C@@H](C)NC1=O [HC toxin, reference compound]
A549 cells
  mitotic abnormalities: caused a significant number of abnormal mitotic cells
α-tubulin deacetylation
  effect on tubulin deacetylation / α-tubulin acetylation in cells: have no effect upon α-tubulin acetylation levels; also recorded: no effect on tubulin acetylation

## O=C(O)CCCCCCC(=O)Nc1ccc([C@@H]2OC(c3ccc(CO)cc3)C[C@H](CSc3nc(-c4ccccc4)c(-c4ccccc4)o3)O2)cc1 (stereo partly shown) [JCWII153]
HDAC6F
  inhibition of TDAC activity of wild-type HDAC6F: did not; also recorded: not inhibited by the addition of niltubacin or trapoxin
Histone deacetylation
  effect on histone deacetylation / lysine or histone acetylation in cells: inactivity; also recorded: had no effect on α-tubulin or histone acetylation
Histone deacetylation; [1]
  effect on histone deacetylation / lysine or histone acetylation in cells: did not affect histone or tubulin deacetylation
α-tubulin deacetylation
  effect on tubulin deacetylation / α-tubulin acetylation in cells: inactivity; also recorded: had no effect on α-tubulin or histone acetylation
α-tubulin deacetylation; [1]
  effect on tubulin deacetylation / α-tubulin acetylation in cells: did not affect histone or tubulin deacetylation

## O=C(CCCCCCC(=O)Nc1ccc(C2OC(CSc3nc(-c4ccccc4)c(-c4ccccc4)o3)CC(c3ccc(CO)cc3)O2)cc1)NO (stereo not shown) [JCWII169]
α-tubulin deacetylation; AcTubulin cytoblot (enantiotubacin), cells (biotubacin)
  potency of inducing α-tubulin acetylation relative to tubacin: equally as potent as tubacin
α-tubulin deacetylation; after re-synthesis and retesting, unpublished data
  selectivity as TDAC inhibitor relative to tubacin (fold less selective): ~5 fold
α-tubulin deacetylation; immunofluorescence and Western blot, A549 cells, 5 h or 18 h
  potency and selectivity of the enantiomers JCWII114 and JCWII169 compared: No significant difference in selectivity or potency

## O=C1N[C@@H](Cc2ccccc2)C(=O)N2CCC[C@@H]2C(=O)N[C@@H](CCCCCC(=O)[C@@H]2CO2)C(=O)N[C@H]1Cc1ccccc1 [trapoxin, trapoxin B, reference compound] (cyclo(FF[dP][Aoe]))
HDAC6F
  inhibition of TDAC activity of wild-type HDAC6F: not inhibited by the addition of niltubacin or trapoxin
HDAC6F; listed as trapoxin B
  inhibition of TDAC activity of wild-type HDAC6F: did not
α-tubulin deacetylation
  effect on tubulin deacetylation / α-tubulin acetylation in cells: have no effect upon α-tubulin acetylation levels
